Reference: article PMC3341351, “Down-Regulation of GABAA Receptor via Promiscuity with the Vasoactive Peptide Urotensin II Receptor. Potential Involvement in Astrocyte Plasticity” (PLoS ONE, 2012)

Target: T1, α2β3γ2 GABAAR co-expressed with human UT (Homo sapiens, UniProt Q9UKP6)
T1 construct: expressed in transfected cells; host or cells: CHO-K1 stably expressing human UT (pIRES-neo2-UT), transiently nucleofected with GABAAR subunit cDNAs
T1 sequence (Q9UKP6 1-389): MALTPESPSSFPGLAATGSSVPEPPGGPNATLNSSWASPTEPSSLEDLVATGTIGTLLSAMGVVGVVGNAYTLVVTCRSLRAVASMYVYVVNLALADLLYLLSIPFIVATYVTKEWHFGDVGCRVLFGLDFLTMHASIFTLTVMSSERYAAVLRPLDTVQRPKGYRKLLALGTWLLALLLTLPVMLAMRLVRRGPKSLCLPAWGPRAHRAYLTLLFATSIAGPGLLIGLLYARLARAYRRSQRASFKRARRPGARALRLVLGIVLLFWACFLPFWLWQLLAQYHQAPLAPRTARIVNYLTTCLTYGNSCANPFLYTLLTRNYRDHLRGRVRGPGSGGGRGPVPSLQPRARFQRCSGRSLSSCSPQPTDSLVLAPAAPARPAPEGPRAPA
Experiment: Patch-clamp of Iso-evoked current in CHO-UT co-expressing α2β3γ2 GABAAR (CHO-UT-GABAAR)
Type: cell-based
Details: for Current inhibition by GABAAR antagonists: SR95531 10^−5 M, picrotoxin 10^−4 M
Method: CHO-K1 cell lines were obtained from American Type Culture Collection (Manassas, VA, USA). The human UT stable CHO (CHO-UT) was generously provided by Dr Christophe Dubessy (Inserm, Rouen University, France) et generated by CHO electroporation with 20 µg pIRES-neo2-UT DNA and 500 µg sterile sonicated salmon sperm DNA using the EasyJect One electroporation system (Equibio, Angleur, Belgium), followed by repetitive rounds of limiting dilution of cells in G-418 (400 µg/ml) for selection. Normal or stable CHO was grown in Ham-F12 medium supplemented with 10% FBS, 1% antibiotic-antimicotic solution and 2 mM glutamine, at 37°C in a humidified incubator with an atmosphere of 5% CO2. The stable CHO-UT medium was supplemented with the antibiotic G-418 (40 µg/ml).
For transfection, cells were trypsinized (0.05%), triturated in HamF-12 containing 10% FBS media, pelleted by centrifugation, resuspended in 100 µl solution V for nucleofection by an Amaxa Nucleofector Device (Köln, Germany; set to program U-016). Experiments were performed on normal CHO or on the stable CHO-UT cells and transiently transfected with combinations of cDNA encoding α2β3γ2, α2β3γ1, α2β1γ2, α2β3γ1, α2β3, β3γ2 (4 µg of cDNA total/transfection) GABAAR subunits. Cells were seeded on 14-mm poly-L-lysine-coated glass bottom insert dishes at 5×10^5 cells in a volume of 0.5 ml/dish. Cells were incubated overnight at 37°C in a humidified incubator (5% CO2) during 16 h before electrophysiological or immunocytochemical experiments.
GABAA receptor cDNA clones; α2, β1, β3, γ1 and γ2L engineered into the expression vector pCDM8 ([…], β1, γ2) or pcDNA/Amp (β3, γ1), were generously provided by Dr Wingrove (Merk Sharp and Dohme, Harlow, UK). To obtain β3 ^HA or γ2 ^HA epitope-tagged subunits, β3 or γ2 cDNA was amplified and the PCR product was subcloned using the SalI and NotI sites of pCMV-HA (Table S2) after digestion by the same restriction enzymes.
The conventional whole-cell configuration of the patch-clamp technique was used to study the GABA-gated currents in astrocytes and granule neurons, UT stably transfected CHO, CHO-UT, and CHO transiently transfected with diverse variants of UT and GABAAR subunits. After 24-h transfection, cell culture coverslips were placed in a small chamber (1.5 ml) on a stage of a right microscope DMLFSA (Leica, Heidelberg, Germany) and superfused continuously with the following bath solution containing (in mM): NaCl, 150; KCl, 2.5; HEPES, 5; CaCl2, 2; MgCl2, 1; glucose, 10 (pH 7.4 adjusted with NaOH). The patch pipettes were fabricated from 1.5 mm (outer diameter) soft glass tubes on a two-step vertical pipette puller (List-Medical, L/M-3P-A, Darmstadt, Germany). […] ATP and GTP were added to the internal solution used to fill electrode just before recording. All recordings were obtained at RT with cells voltage-clamped at −70 mV. The GABAA receptor agonist isoguvacine was prepared in the extracellular solution and was applied to cells by pneumatic pressure ejection. To prevent desenzitization, isoguvacine was more often ejected during 5 s at 2-min intervals. ATP, GTP, or guanosine 5′-O-(2-thiodiphosphate) (GDPβS) were administered through the patch pipette solution. We investigated the effect of competitive inhibition of GDP-GTP exchange by including GDPβS in the pipette solution (in addition to the normal amount of GTP). For GDPβS and the KIC, immediately following patch rupture, GABA current recordings were performed and the experiment was commenced after an equilibration period of 15 min.
All peptide ligands, inhibitors or allosteric modulators of the GABAA receptor function were applied via gravity through a plastic tubing positioned in the vicinity of the cell body in order to maintain a sustained perfusion. In these conditions, drugs could reach the cell of interest after 30 s of perfusion. Isoguvacine was applied focally by pneumatic pressure ejection from a micropipette.

## CCCC(C)C1(CC)C(=O)NC(=O)NC1=O (stereo not drawn) [pentobarbital]
Pentobarbital 10^−5 M, Figure S1A
  Direct activation of chloride current: directly activated a chloride current
Pentobarbital 10^−5 M, reversible, Figure S1A
  Potentiation of the Iso-evoked current: 196.28±12.33%

## picrotoxin
Figure S1A
  Current inhibition by GABAAR antagonists: 56.76±4.33%

## O=C(O)CN(CC(=O)O)c1ccccc1OCCOc1ccccc1N(CC(=O)O)CC(=O)O [BAPTA]
BAPTA 10^−4 M intracellular dialysis, n = 9
  Reduction of hUII-induced long-term current inhibition: 39.29±10.16%

## Br.COc1ccc(-c2ccc(=N)n(CCCC(=O)O)n2)cc1 [SR95531]
Figure S1A
  Current inhibition by GABAAR antagonists: 76.92±10.35%

B1: UT^c-myc 319–389: peptidomimetic corresponding to the entire C-terminus cytosolic fragment of UT (protein, UniProt Q9UKP6 319-389, looked up, fragment)
chain: TRNYRDHLRGRVRGPGSGGGRGPVPSLQPRARFQRCSGRSLSSCSPQPTDSLVLAPAAPARPAPEGPRAPA
modifications: c-myc tag
UT^c-myc 319–389 expressed in CHO-UT-GABAAR, hUII 10^−8 M
  Effect of UT C-terminal peptidomimetic on fast and long-term effects of hUII on GABA-evoked current: completely inhibited the fast and long-term effects of hUII on the GABA-evoked current
